Measured values taken from patent EP0291663A2, “Tert.-butyl amino-3-(phenyl-2'-phenoxy)-1-propanol-2 for the control of heart arrhythmia” (priority 1987, dated 1988).
Where a name gives a salt, the structure may show the parent alone.

What was measured:
[1] = tested on: Meerschweinchen-Papillarmuskel; experiment: Contraction of isolated guinea pig papillary muscle (safety factor, negative inotropy); type: cell-based; details: for Sf (Sicherheitsfaktor): Rate Factor von Vmax × (C20 CF/C20 Vmax)
From the text: (§1) Überraschenderweise wurde gefunden, daß das tert.-Butylamino-3-(phenyl-2ʹ-phenoxy)-1-propanol 2 ("Bipranol") der Formel [drawing 1] und seine Salze mit Säuren keine β-sympatholytische Wirkung, sondern eine starke antiarrhythmische Wirkung besitzen. Die elektrophysiologischen und hämodynamischen Wirkungen wurden in vitro an zwei verschiedenen isolierten Herzpräparaten und in vivo (Hund) experimentell untersucht. In Tabelle I sind Ergebnisse pharmakologischer Untersuchungen mit Diprafenon, Propafenon und Bipranol zusammengefaßt.
(§2) C20 Vmax: Konzentration, die Vmax bei einer Zykluslänge von 1000 mSek. um 20 % verringert. C20 CF: Konzentration, die die Kontraktion des Papillarmuskels um 20 % verringert. Rate Factor von Vmax: (% des Kontrollwertes Vmax bei einer Zykluslänge von 2000 mSek.)/(% des Kontrollwertes Vmax bei einer Zykluslänge von 500 mSek.) bei C20Vmax. C20APD95: Die Konzentration, die das APD95 des normalen Aktionspotentials um 20 % verlängert. Sf : Sicherheitsfaktor, errechnet als Rate Factor von Vmax × (C20 CF/C20 Vmax).

Hunde-Purkinye Fasern = experiment: Electrophysiology on isolated dog Purkinje fibres (Vmax, action potential duration); type: cell-based, Hund; details: for Rate Factor von Vmax: (% of control Vmax at cycle length 2000 mSek.)/(% of control Vmax at cycle length 500 mSek.) at C20Vmax
From the text: as §1, §2
(§3) In in vitro-Experimenten an isolierten Herzpräparaten lag die leistungsverzögernde und damit antiarrhythmische Wirkung (C20 Vmax) bei einer Dosis von 2,2 µMol Bipranol. Diese Dosierung entspricht einer antiarrhythmischen wirksamen Dosis von etwa 3 mg/kg bei in vivo Versuchen an Hunden. […] Diese Konzentration ist ungefähr 14 mal höher als für eine antiarrhythmische Wirkung gebraucht wird.

[2] = tested on: Meerschweinchen-Vorhofmuskel; experiment: Antagonism of the positive inotropic effect of adrenaline on isolated guinea pig atrial muscle; type: cell-based; details: highest test concentration 30 µMol
Description: as §3

β-Rezeptor = type: in vivo, Hund
From the text: Als Parameter zur Bestimmung der β-Rezeptor-blockierenden Wirkung am narkotisierten Hund dienten dP/dt als Maß für die Kontraktionskraft des Herzens, sowie cardiac output (Herzzeitvolumen). […] Im Gegensatz wirken β-Blocker immer negativ-inotrop. […] Die Beobachtungen bei dieser Dosis sind wahrscheinlich Folge einer nicht spezifischen toxischen Wirkung und beruhen nicht auf einer β-sympatolytischen Wirkung.

ventrikuläre Arrhythmien = type: in vivo, Hund; details: dog
From the text: Dies wird auch durch in vivo Experimente bestätigt. Die antiarrhythmische Wirksamkeit der Verbindung wurde an Hunden nach H. Glücker et al., Arzneim.Forsch. (Drug Ros.) Bd. 35 (II), 9 (1985) S.1387-1393 geprüft. Die […] wurde mindestens 2 Stunden lang occludiert. Nach dem Auftreten konstanter […] die Verbindungen intravenös injiziert.

in vivo = details: rat
[3] = anaesthetised dog, up to 30 mg/kg
[4] = concentration that prolongs APD95 of the normal action potential by 20 %

SMILES	negativ-inotrope Nebenwirkung [1]	Sf (Sicherheitsfaktor) [1]	Rate Factor von Vmax (Hunde-Purkinye Fasern)	C20APD95 (Hunde-Purkinye Fasern; [4])	also measured
CC(C)(C)NCC(O)COc1ccccc1-c1ccccc1 (centres unmarked) [Bipranol, tert.-Butylamino-3-(phenyl-2ʹ-phenoxy)-1-propanol-2]	keine nennenswerte negativ-inotrope Nebenwirkung	9,09	5		IC20 (Hunde-Purkinye Fasern; Canis lupus familiaris, purkinje, concentration that reduces Vmax by 20 % at cycle length 1000 mSek., isolated heart preparations, read-out: C20 Vmax): 2.2 µM; EC20 (Hunde-Purkinye Fasern; purkinje, concentration that prolongs APD95 of the normal action potential by 20 %, read-out: C20APD95): 7.2 µM; Abschwächung der positiv-inotropen Wirkung von 1 µMol Adrenalin [2]: geringe Abschwächung; cardiac output (Herzzeitvolumen) (β-Rezeptor; [3]): nicht beeinflußt; dP/dt (Kontraktionskraft des Herzens) (β-Rezeptor; [3]): keine negativ-inotrope Wirkung; Mortality (β-Rezeptor; in vivo, iv, 30 mg/kg): starben alle Hunde; Reduktion der ventrikulären Extrazystolen (ventrikuläre Arrhythmien; i.v., 1,6 mg/kg followed by 50 µg/kg/min): > 90%
CC(C)(C)NCC(O)COc1ccccc1-c1ccccc1 (centres unmarked) [Bipranol HCl, tert.-Butylamino-3-(phenyl-2ʹ-phenoxy)-1-propanol-2]					LD50 (in vivo; Ratte (iv)): 11 mg/kg; LD50 (in vivo; Ratte (oral)): 571 mg/kg
CCCNCC(O)COc1ccccc1C(=O)CCc1ccccc1 (centres unmarked) [Propafenon]		1,55	1,08	nicht erreicht	
O=C(NCC1CCCCN1)c1cc(OCC(F)(F)F)ccc1OCC(F)(F)F (centres unmarked) [Flecainid, reference compound]					therapeutische Dosierung (ventrikuläre Arrhythmien; i.v., followed by 50 µg/kg/min): 2,4 mg/kg
CCC(C)(C)NCC(O)COc1ccccc1C(=O)CCc1ccccc1 (centres unmarked) [Diprafenon]	deutlich negativer inotroper Effekt	4,86	1,19	nicht erreicht	
